# What was measured:
# [1] = tested on: MTAP− and MTAP+ cell lines (isogenic pairs); experiment: Cell viability IC50 measurement (Cell Titer-Glo); format: cell-based
# Method: Applicants tested the ability of these inhibitors to selectively impair viability of parental MTAP− cell lines compared to isogenic lines expressing MTAP, as well as parental MTAP+ cell lines compared to isogenic CRISPR-mediated MTAP knockout lines (FIG. 17).
# Cell plating densities were determined by evaluating the number of cells required to achieve 70% confluency after 12 days in culture. Cells were seeded in 100 μL of media in 96-well plates (excluding wells in the first or last row or column) using the following densities in cells per well: LU99 at 360, H647 at 100, SF-172 at 35, SU8686 at 250, MIAPACA2 at 135, H838 at 73, H2126 at 1042, HCC44 at 62, KP2 at 292, H661 at 166, and H2030 at 250. Isogenic cell line pairs were seeded at the same densities for all experiments.
# Drug was administered using the HP D300 digital dispenser (Hewlett-Packard). […] Media and drug were changed every 4 days.
# Isogenic cell line pairs were plated and cultured in parallel for the same time period. Luminescence was measured according to the manufacturer's instructions using the EnVision Multilabel Reader (Perkin Elmer). Luminescence data from each well was normalized to luminescence from wells containing untreated cells on that same plate. IC50 was calculated by non-linear regression using the ‘log(inhibitor) vs. response (three parameters) analysis in GraphPad Prism 6.
# [2] = molecular target: PRMT5 (Homo sapiens, UniProt O14744); conditions: cited from earlier work
# PRMT5, sequence (O14744 whole entry): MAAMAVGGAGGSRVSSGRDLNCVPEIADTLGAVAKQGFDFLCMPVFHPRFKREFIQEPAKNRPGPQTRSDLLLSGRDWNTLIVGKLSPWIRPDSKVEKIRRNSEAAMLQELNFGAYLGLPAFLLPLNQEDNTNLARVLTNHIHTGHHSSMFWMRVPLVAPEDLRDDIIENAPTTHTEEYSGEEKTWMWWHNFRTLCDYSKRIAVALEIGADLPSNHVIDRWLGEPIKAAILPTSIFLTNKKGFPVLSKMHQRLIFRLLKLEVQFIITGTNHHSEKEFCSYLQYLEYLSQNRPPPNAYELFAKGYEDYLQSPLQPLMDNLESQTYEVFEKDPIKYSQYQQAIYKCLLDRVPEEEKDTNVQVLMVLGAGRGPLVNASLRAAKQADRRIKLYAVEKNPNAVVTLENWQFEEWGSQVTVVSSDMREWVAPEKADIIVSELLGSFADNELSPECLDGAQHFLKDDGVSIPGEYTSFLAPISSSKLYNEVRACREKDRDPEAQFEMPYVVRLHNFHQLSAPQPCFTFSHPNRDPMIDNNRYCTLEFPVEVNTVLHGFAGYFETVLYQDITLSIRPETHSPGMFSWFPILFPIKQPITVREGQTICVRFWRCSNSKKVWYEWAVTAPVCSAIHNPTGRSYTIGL
# PRMT5, sequence (Q9BQA1 whole entry partner): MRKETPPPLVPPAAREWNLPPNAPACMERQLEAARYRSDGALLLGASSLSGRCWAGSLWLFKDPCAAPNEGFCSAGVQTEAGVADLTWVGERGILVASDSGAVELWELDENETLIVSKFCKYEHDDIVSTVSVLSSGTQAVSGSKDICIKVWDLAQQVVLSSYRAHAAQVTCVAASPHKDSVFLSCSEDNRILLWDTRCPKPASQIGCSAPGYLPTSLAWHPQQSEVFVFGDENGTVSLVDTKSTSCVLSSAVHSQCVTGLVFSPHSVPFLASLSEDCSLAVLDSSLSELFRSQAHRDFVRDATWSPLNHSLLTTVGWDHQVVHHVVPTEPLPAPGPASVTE
smiles,measurement,setting,value
O=C(NC[C@H](O)CN1CCc2ccccc2C1)c1cc(NC2COC2)ncn1 [EPZ015666],differential sensitivity between isogenic MTAP− and MTAP+ cells,[1]; SF-172 isogenic pair,absent altogether
same,difference in mean IC50 values between MTAP+ and MTAP− cell lines,[1]; parental MTAP+ vs MTAP− cell lines,did not observe significant differences
same,mode of inhibition of PRMT5,[2],peptide-competitive and SAM-cooperative

# Source: patent US20180271891A1, “SELECTIVE TREATMENT OF PRMT5 DEPENDENT CANCER” (THE BROAD INSTITUTE INC., priority 2015, published 2018)
